Data reported in ChEMBL document CHEMBL4651402, “Screening of ~5500 FDA-approved drugs and clinical candidates for anti-SARS-CoV-2 activity” (2021).

System: SARS-CoV-2
Assay: microbe, parasite or virus in culture
Conditions: Severe acute respiratory syndrome coronavirus 2, Vero C1008, 48 h

Compound	IC50 [µM]	IC50 (read-out: pIC50 (converted)) [µM]
CS(=O)(=O)Nc1ccc2c(c1)S(=O)(=O)N=C(C1=C(O)C3C4CCC(C4)C3N(Cc3ccc(F)cc3)C1=O)N2 (configuration not stated)	> 20	> 20
C1CCC2(C1)C1CN(CC3CC3)CC2CN(CC2CC2)C1	> 20	> 20
NC(=O)NC(CC(=O)O)C(=O)O (configuration not stated)	> 20	> 20
ClC1C(Cl)C(Cl)C(Cl)C(Cl)C1Cl (configuration not stated)	> 20	> 20
CNS(=O)(=O)CCc1ccc2[nH]cc(C3CCN(C)CC3)c2c1	> 20	> 20
CN(C)CCN(Cc1cccs1)c1ccccn1	> 20	> 20
CC12CCC3C(CC=C4CC(OS(=O)(=O)O)CCC43C)C1CCC2=O (configuration not stated)	> 20	> 20
CC(C)C[C@H](NC(=O)OCC1c2ccccc2-c2ccccc21)C(=O)O	> 20	> 20
CC12CCC(=O)C=C1CCC1C2C(=O)CC2(C)C1CCC2(O)C(=O)CO (configuration not stated)	> 20	> 20
CNc1ccccc1C(=O)O	> 20	> 20
CC1=C(CC(=O)O)c2cc(F)ccc2/C1=C\c1ccc([S+](C)[O-])cc1 (configuration not stated)	> 20	> 20
CCN1CC2CN(C)CC(C1)C2OC(=O)c1ccc(Cl)cc1 (configuration not stated)	> 20	> 20
COc1ccc2cc([C@@H](C)C(=O)O)ccc2c1	> 20	> 20
CC(=O)OC(CC(=O)O)C[N+](C)(C)C (configuration not stated)	> 20	> 20
COc1ccc2oc3ccccc3c(=O)c2c1	> 20	> 20
C[C@]12CCC3C(CCC4=C(Cl)C(=O)CC[C@@]43C)C1CCC2O (some centres not stated)	> 20	> 20
CCC[C@@]1(CCc2ccccc2)CC(O)=C([C@H](CC)c2cccc(NS(=O)(=O)c3ccc(C(F)(F)F)cn3)c2)C(=O)O1	> 20	> 20
O=C(Nc1ccccc1F)N[C@@H]1N=C(c2ccccc2)c2ccccc2NC1=O	> 20	> 20
CCN(CC)CCOc1ccc(Cc2ccccc2)cc1	> 20	> 20
NCCCCCCN	> 20	> 20
CC(=O)S[C@@H]1CC2=CC(=O)CCC2(C)C2CCC3(C)C(CC[C@@]34CCC(=O)O4)C21 (some centres not stated)	> 20	> 20
CCCN(CCC)c1cc(C)nc2c(-c3cnc(N(C)C)cc3C)c(C)nn12	> 20	> 20
COc1ccc2c3c1O[C@H]1[C@@H](OC(C)=O)C=C[C@H]4[C@@H](C2)N(C)CC[C@@]341	> 20	> 20
CN1Cc2ccccc2[C@@H]2c3cccc4[nH]cc(c34)C[C@H]21	> 20	> 20
N#Cc1cc2c(OCC(O)CN3CCN(C(c4ccccc4)c4ccccc4)CC3)cccc2[nH]1 (configuration not stated)	> 20	> 20
COc1ccc(/C=C/C(=O)O)cc1OC	> 20	> 20

Compound	IC50 [µM]	IC50 (read-out: pIC50 (converted)) [µM]
CCC(=O)OCC(=O)[C@@]1(OC(=O)CC)C(C)CC2C3CCC4=CC(=O)C=CC4(C)[C@@]3(Cl)C(O)CC21C (some centres not stated)	> 20	> 20
NS(=O)(=O)c1ccc(N2CCCCS2(=O)=O)cc1	> 20	> 20
NC(=O)CN1CCCC1=O	> 20	> 20
CC1(C)C2=CCC3C(CCC4(C)C3CC[C@]4(C)O)C2(C)Cc2cnoc21 (some centres not stated)	> 20	> 20
CC(C)(CO)C(=O)SCCOP(=O)(NCc1ccccc1)OC[C@H]1O[C@@H](n2cnc3c(=O)[nH]c(N)nc32)[C@](C)(O)[C@@H]1O (some centres not stated)	> 20	> 20
CNc1ncnc2c1ncn2[C@@H]1O[C@H](CO)[C@@H](O)[C@H]1O	> 20	> 20
O=C(NC(CO)C(O)c1ccc([N+](=O)[O-])cc1)C(Cl)Cl (configuration not stated)	> 20	> 20
COc1ccc(/C=C/C(=O)Nc2ccccc2C(=O)O)cc1OC	> 20	> 20
CCCn1c(=O)c2nc(C34CC5CC(CC(C5)C3)C4)[nH]c2n(CCC)c1=O	> 20	> 20
CC(=O)OCC(=O)[C@@]1(O)CCC2C3CCC4=CC(=O)CCC4(C)C3C(O)CC21C (some centres not stated)	> 20	> 20
CN[C@H]1[C@H](O)[C@H](O[C@@H]2[C@@H](O)[C@H](O[C@H]3O[C@H]([C@@H](C)O)[C@@H](O)[C@H](O)[C@H]3N)[C@@H](N)C[C@H]2N)OC[C@@]1(C)O	> 20	> 20
O=C(/C=C/c1c(C(=O)O)[nH]c2cc(Cl)cc(Cl)c12)Nc1ccccc1	> 20	> 20
CC1=CCC2C3Cc4ccc(O)c5c4C2(CCN3C)C1O5 (configuration not stated)	> 20	> 20
CCCCCCCCCC(=O)N[C@@H](Cc1c[nH]c2ccccc12)C(=O)N[C@H](CC(N)=O)C(=O)N[C@@H](CC(=O)O)C(=O)N[C@@H]1C(=O)NCC(=O)N[C@@H](CCCN)C(=O)N[C@@H](CC(=O)O)C(=O)N[C@H](C)C(=O)N[C@@H](CC(=O)O)C(=O)NCC(=O)N[C@H](CO)C(=O)N[C@@H]([C@H](C)CC(=O)O)C(=O)N[C@@H](CC(=O)c2ccccc2N)C(=O)O[C@@H]1C	> 20	> 20
C=C[C@]1(C)C[C@@H](OC(=O)CSCCN(CC)CC)[C@]2(C)C(C)CC[C@]3(CCC(=O)[C@@H]32)[C@@H](C)[C@@H]1O (some centres not stated)	> 20	> 20
CCC(=O)OC1C(OC2C(C)C(OC3CC(C)(OC)C(O)C(C)O3)C(C)C(=O)OC(CC)C(C)(O)C(O)C(C)C(=O)C(C)CC2(C)O)OC(C)CC1N(C)C (configuration not stated)	> 20	> 20
CC[C@]12C=CCN3CCC4(c5ccc(OC)cc5N(C)[C@H]4[C@](O)(C(=O)OC)[C@@H]1OC(C)=O)C32 (some centres not stated)	> 20	> 20
CC12CCC(=O)C=C1CCC1C2CCC2(C)C1CC[C@H]2O (some centres not stated)	> 20	> 20
CC1CC(OC(=O)C2CCC(=O)N2)CC(C)(C)C1 (configuration not stated)	> 20	> 20
N[C@@H](CCC(=O)N[C@@H](Cc1c[nH]c2ccccc12)C(=O)O)C(=O)O	> 20	> 20
CCN1C[C@@]2(COC)C3[C@@H](OC)[C@H]4[C@H]1C3([C@@H]1C[C@@]3(O)[C@H](OC(=O)c5ccccc5)[C@@H]1[C@]4(OC(C)=O)[C@@H](O)[C@@H]3OC)[C@H](OC)C[C@H]2O	> 20	> 20
COc1ccc(-c2ccc(=O)n(Cc3ccc(Cl)cc3F)c2)cc1	> 20	> 20
CC/C(=C(\c1ccc(OCCN(C)C)cc1)c1cccc(O)c1)c1ccccc1	> 20	> 20
CC(=O)C12OC(C)(C)OC1CC1C3CCC4=CC(=O)CCC4(C)C3CCC12C (configuration not stated)	> 20	> 20
CCC[C@H](N[C@@H](C)C(=O)N1C2CCCCC2C[C@H]1C(=O)O)C(=O)OCC (some centres not stated)	> 20	> 20
O=C(O)C1N[C@H](C(=O)O)CS1 (some centres not stated)	> 20	> 20

Compound	IC50 [µM]	IC50 (read-out: pIC50 (converted)) [µM]
CN1CC(CN(CCN=[N+]=[N-])S(C)(=O)=O)=CC2c3cccc4[nH]cc(c34)CC21 (configuration not stated)	> 20	> 20
O=C1CCCN1CC1CCN(c2ccnc(C(F)(F)F)n2)CC1	> 20	> 20
CC12CCC(O)CC1CCC1[C@@H]2CC(O)C2(C)C(C3=CC(=O)OC3)CCC12O (some centres not stated)	> 20	> 20
CN(C)CCOc1ccc2c(=O)c3ccc(OCCN(C)C)cc3oc2c1	> 20	> 20
CC(C)(C)NC(=O)[C@H]1CC[C@H]2[C@H]3CC[C@H]4NC(=O)C=C[C@]4(C)[C@H]3CC[C@]12C	> 20	> 20
O[C@@H]1[C@@H](O)[C@@H](O)CN2CC[C@@H](O)[C@H]12	> 20	> 20
CC(=O)Oc1ccc2c(c1)CCC1C2CCC2(C)C(O)CCC12 (configuration not stated)	> 20	> 20
c1cnc2c(c1)CC1(CN3CCC1CC3)O2 (configuration not stated)	> 20	> 20
O=C1CCN2C(=C1C(=O)NC1CCN(CCCn3c(=O)[nH]c4ccccc43)CC1)Nc1ccccc12	> 20	> 20
NC(C(=O)NC1C(=O)N2C(C(=O)O)=C(CSc3c[nH]nn3)CSC12)c1ccc(O)cc1 (configuration not stated)	> 20	> 20
NS(=O)(=O)c1cc(C(=O)NN2CC3C4CCC(C4)C3C2)ccc1Cl (configuration not stated)	> 20	> 20
O=C(O)c1ccc(NC(=O)C(Cc2ccc(O)cc2)NC(=O)c2ccccc2)cc1 (configuration not stated)	> 20	> 20
NCCC(O)C(=O)N[C@H]1C[C@@H](N)[C@H](O[C@H]2O[C@H](CN)[C@@H](O)[C@H](O)[C@H]2O)[C@@H](O)[C@@H]1O[C@H]1O[C@H](CO)[C@@H](O)[C@H](N)[C@H]1O (some centres not stated)	> 20	> 20
CCN1C[C@]2(OC(=O)c3ccccc3NC(C)=O)CC[C@H](OC)[C@@]34[C@@H]2C[C@@H]([C@@H]13)[C@@]1(O)C[C@H](OC)[C@H]2C[C@@H]4[C@]1(O)[C@H]2OC	> 20	> 20
COC(=O)OC[C@H]1O[C@@H](Oc2cc(C)cc(O)c2C(=O)CCc2ccc3occc3c2)[C@H](O)[C@@H](O)[C@@H]1O	> 20	> 20
c1ccc(C(CCN2CCCCC2)c2ccccc2)cc1	> 20	> 20
COC1=C[C@@H]2C3=C([C@@H]2C1=O)[C@@H](NC(C)=O)CCc1cc(OC)c(OC)c(OC)c13	> 20	> 20
CC12C=CC(=O)C=C1CCC1C2CCC2(C)C(O)CCC12 (configuration not stated)	> 20	> 20
Nc1nonc1/C(=N/O)Nc1ccc(F)c(Cl)c1	> 20	> 20
C[N+]12CCC(CC1)C(OC(=O)C(O)(c1ccccc1)c1ccccc1)C2 (configuration not stated)	> 20	> 20
CC(=O)OCC(=O)[C@@]1(O)[C@H](C)CC2C3CCC4=CC(=O)C=CC4(C)[C@@]3(F)C(O)CC21C (some centres not stated)	> 20	> 20
CC(=O)OCC(=O)[C@@]1(O)CCC2C3C[C@H](C)C4=CC(=O)C=CC4(C)C3C(O)CC21C (some centres not stated)	> 20	> 20
CC12C=CC(=O)C=C1CCC1C2CCC2(C)C(=O)CCC12 (configuration not stated)	> 20	> 20
NC1CCN(c2cccc(Cl)n2)CC1	> 20	> 20
